Experimental data reported in patent US20060258717A1, “ORGANIC COMPOUNDS” (priority 2004, published 2006).
Like-named read-outs stand apart in the source and are kept apart here.

Test system: human umbilical vein endothelial cells (HUVECs)
Settings: for number of tubes (capillary networking) versus control: 24 hours, HUVECs on growth factor-reduced Matrigel, 8 wells, five random fields per well
Method: Various concentrations of compound A (0.1, 1, and 10 μM) are tested to assess the quality of effect of this compound on capillary networking (tube formation) in cultured human umbilical vein endothelial cells (HUVECs) seeded on growth factor-reduced Matrigel. The intensity of capillary networking is evaluated at 24 hours using a phase-contrast microscope. Images are captured and analySYS 3.2 software is used to count the number of tubes in five random fields of each well (8 wells altogether). The effect of the compound is compared to untreated cells grown in cell culture medium (control).

`Cc1nccn1Cc1ccccn1` [Compound A, [2-(2-methylimidazol-1-yl)methyl]pyridine] was tested, and the “number of tubes (capillary networking) versus control” value (1 μM compound) was “significantly decreases the number of tubes”, the “number of tubes (capillary networking) versus control” value (10 μM compound) was “significantly decreases the number of tubes” and the “cell toxicity (ToxiLight, ATP release from damaged cells)” value (additional study, concentrations not given) was “not related to cell toxicity”.
